The text below walks through data of publication PMC5734728, “The JAK2/STAT3 inhibitor pacritinib effectively inhibits patient-derived GBM brain tumor initiating cells in vitro and when used in combination with temozolomide increases survival in an orthotopic xenograft model” (PLoS ONE, 2017).

Like-named read-outs stand apart in the source and are kept apart here.

The subject of data set [1] is BT143 orthotopic xenograft. Briefly: Kaplan-Meier survival, orthotopic BT143 xenograft. It is filed as in vivo. Particulars: BT143 xenografted mice; p < 0.4622 log-rank.
In a further data set the test system is p-STAT3 Y705. Briefly: western blotting of activated STAT3 in BTICs. It is filed as cell-based, human. The note with it: for STAT3 activation (phosphorylation on tyrosine 705): 3 hours. As for the experimental part:
BTIC spheres were enzymatically dissociated as described above and plated at 10^6 cells/2 mL of media. Cells were treated with vehicle (DMSO), pacritinib, TMZ, or a combination of pacritinib and TMZ and pelleted at select time points (3, 24, and 48 hours). For protein extraction, BTICs were lysed in modified radio-immunoprecipitation assay buffer supplemented with Complete Mini protease (Roche) and Halt phosphatase (Thermo Scientific) inhibitor cocktails. Protein concentrations were quantified using the BioRad protein assay; 20 μg of protein were loaded on 6% or 10% sodium dodecyl sulfate polyacrylamide gel electrophoresis (SDS PAGE) gels and transblotted to nitrocellulose membranes. Blots were stained with primary antibodies followed by horseradish peroxidase-conjugated secondary antibodies. Primary antibodies included p-STAT3 Y705 (1:1000; Cell Signaling Technology), STAT3 (1:1000; Cell Signaling Technology), p-Akt S473 (1:1000; Cell Signaling Technology), Akt (1:1000; Cell Signaling Technology), p-p44/42 MAPK (T202/Y204) (1:1000; Cell Signaling Technology), p44/42 MAPK (1:4000; Cell Signaling Technology), poly (ADP-ribose) polymerase (1:1000; Cell Signaling Technology), β-tubulin (1:1000; Cell Signaling Technology), and Actin (1:1000; Santa Cruz Biotechnology). Secondary antibodies included donkey anti-mouse (1:5000; Cell Signaling Technology), donkey anti-goat (1:5000; Millipore), and goat anti-rabbit (1:5000; Cell Signaling Technology). The blots were washed with tris-buffered saline and tween 20 (T-TBS) (50mM Tris, 150mM NaCl, 0.05% Tween 20, pH 7.6) and blocked with tris-buffered saline (TBS) before imaging. Bands were visualized with the SuperSignal West Pico chemiluminescent solution (Thermo Scientific) and an Amersham™ Imager 600 (General Electric).

For a further data set, the system named is BT12. Briefly: alamarBlue BTIC viability assay, BT12. Particulars: Homo sapiens, BT-12, read-out: IC50 (viability). Background: Alamar Blue is a resazurin reagent that responds to reducing activity.
Another data set deals with BT69. Briefly: neurosphere assay, BT69. It is filed as cell-based, human. The note with it: 3 μM.
Data set [2] can be described thus: human liver microsomal stability assay. It counts as in vitro ADME. Particulars: human liver microsomes, 30-minute incubation. The procedure: Working stocks were initially diluted to a concentration of 40 μM in 0.1 M potassium phosphate buffer before addition to the reaction vials. Pooled mouse (CD-1, male) or human (50 donors) liver microsomes were utilized at a final concentration of 0.5 mg/mL. Duplicate wells were used for each time point (0 and 30 minutes). Reactions were carried out at 37°C in a shaker, and the final concentration of DMSO was kept constant at 0.01%. The final volume for each reaction was 100 μL, which included the addition of an NADPH-Regeneration solution (NRS) mix. The NRS mix was comprised of glucose 6-phosphate dehydrogenase (0.4 U/mL), NADP+ (1.3 mM), MgCl2 (3.3 mM), and glucose 6-phosphate (3.3 mM) in assay mixtures. Upon completion of the 30-minute time point, reactions were terminated by the addition of 1.5-volumes (150 μL) of ice-cold acetonitrile with 0.5% formic acid and internal standard. Samples were then centrifuged at 4,000 rpm for 10 minutes to remove debris and precipitated protein. Approximately 150 μL of supernatant was subsequently transferred to a new 96-well microplate for LC-MS analysis. Narrow-window mass extraction LC-MS analysis was performed for all samples using a Waters Xevo quadrupole time-of-flight (QToF) mass spectrometer and an ACQUITY UPLC system, to determine relative peak areas of parent compound.
A general note: Liver microsomes are vesicles of endoplasmic reticulum, rich in cytochrome P450 enzymes.

For a further data set, the system named is BT67. The data set can be described thus: alamarBlue BTIC viability assay, BT67. It counts as cell-based. The note with it: Homo sapiens; BTIC line BT67, alamarBlue.
Another data set concerns BT50. The data set can be described thus: alamarBlue BTIC viability assay, BT50. It counts as cell-based. The note with it: Homo sapiens; BTIC line BT50, alamarBlue.
Data set [3] concerns patient-derived GBM BTIC cultures. The data set can be described thus: alamarBlue viability assay, panel of BTIC cultures.
Experimental: (§1) Accumax (eBioscience) was used to enzymatically dissociate BTIC spheres to single cells. Cells were seeded at 1000 cells per well in 96-well plates and treated with vehicle (DMSO) or drug, 24 hours after plating. BTIC viability was assessed after 7–14 days, once spheres were formed in control wells, by performing the alamarBlue™ (Invitrogen) assay per the manufacturer’s instructions. In brief, the alamar dye was added to each well and plates were read 6 hours later. Fluorescence intensity (excitation 540 nm; emission 590 nm) was measured on a SpectraMax M Series Multi-Mode Microplate reader. […] All experiments were performed in triplicate with a minimum of 3 wells per condition.
(§2) BTICs were treated with suboptimal doses of 1 μM pacritinib (CTI Biopharma), 10 μg/mL TMZ (Sigma), or a combination of pacritinib and TMZ. […] Percent inhibition was determined by normalizing each well to the control well (0.1% DMSO).
A further data set relates to BT48. Briefly: alamarBlue BTIC viability assay, BT48. It is filed as cell-based. Particulars: Homo sapiens; BTIC line BT48, alamarBlue.
The nature of data set [4]: five-day pharmacokinetics by LC-MS, serum and brain. It counts as in vivo, mice. The note with it: SCID, mouse, five days, mean ± SD, N = 3; for concentration at 300 min: 300 minutes post-dosing; for concentration at 30 min: 30 minutes post-dosing. As for the experimental part:
Animal studies were performed following institutional ethical guidelines and protocols approved by the University of Calgary Health Sciences Animal Care Committee, accredited by the Canadian Council on Animal Care (CCAC). Non-tumor bearing mice were treated with 100 or 200 mg/kg doses of pacritinib by oral gavage for five consecutive days. Three mice per group were used. Post-dosing, blood was collected at 30 and 300 minute time points. The serum was separated by centrifugation. Liquid chromatography-mass spectrometry (LC-MS) was performed to determine the serum concentration of pacritinib. To determine brain penetration, brains were harvested and processed at the 300 minute time point following transcardiac perfusion with PBS. Brains were removed and flash frozen at -80°C. Pacritinib accumulation in the brain was analyzed using LC-MS.

For data set [5] the following is noted: human, in vivo, cited from earlier work.
The subject of a further data set is BT147. Briefly: alamarBlue BTIC viability assay, BT147. It counts as cell-based. The note with it: Homo sapiens; BTIC line BT147, alamarBlue.

Experimental for BT12: as §1, §2

Broadly, the IC50 is the point on the concentration scale where inhibition reaches its midpoint. As usually defined, the fraction remaining is what is left of the initial amount, in per cent. By Cmax is commonly meant the highest concentration seen after dosing. With `C1=C/COCc2cc(ccc2OCCN2CCCC2)Nc2nccc(n2)-c2cccc(c2)COC/1` [pacritinib], in [1], the “efficacy of treatment alone (Kaplan-Meier survival)” value is recorded as “no efficacy”. In the data set on p-STAT3 Y705 (BT53, 48 hours, 1 μM pacritinib, 10 μg/mL TMZ or both), the “p-STAT3 Y705” value was “dramatically reduced phosphorylation”. Besides, the “STAT3 activation (phosphorylation on tyrosine 705)” value with p-STAT3 Y705 (BT53, low micromolar concentrations) is listed as “decreased STAT3 activation”; in the data set with p-STAT3 Y705 (BT147, 1 μM), “strongly decreased STAT3 activation”. In addition, the “activated STAT3 (phosphorylation on tyrosine 705)” value in the data set with p-STAT3 Y705 (BT69, 3 hours) is “decreased activated STAT3”. Further, the concentration for half-maximal inhibition (IC50) with BT12 is 1.66 µM; with BT67, 1.08 µM; in the data set on BT50, 0.62 µM; in data set [3] (Homo sapiens, read-out: IC50 values for the eleven BTIC cultures tested), 0.62 to 1.66 µM; in the data set on BT48, 1.03 µM; in the data set on BT147 it was 0.99 µM. The sphere formation entry in the data set with BT69 was “completely abolished sphere formation”. Moreover, the stability rating entry in data set [2] is reported as “Stable”. In data set [2] (1 μM), the share remaining at 0.5 h, 1 μM is 76.2 ± 7.9%. This compound registered a viability reduced in [3] (at 1.5 μM, in 10/11 BTIC cultures tested) of 50%. Further, the concentration at 300 min in data set [4] (brain, 100 mg/kg oral gavage, read-out: [Brain]) was 0.91 ± 0.061 µM; in data set [4] (brain, 200 mg/kg oral gavage, read-out: [Brain]), 0.84 ± 0.02 µM; in [4] (serum, 100 mg/kg oral gavage, read-out: [Serum]), 0.51 ± 0.14 µM; in data set [4] (serum, 200 mg/kg oral gavage, read-out: [Serum]), 0.43 ± 0.12 µM. For the same compound, the concentration at 30 min in data set [4] (serum, 100 mg/kg oral gavage) is 2.66 ± 0.72 µM; in data set [4] (serum, 200 mg/kg oral gavage), 12.6 ± 0.98 µM. Moreover, the Cmax in data set [5] (100 mg) was 7.8 µM. Also, in data set [5] (100 mg), the “mean maximum concentration (Cmax)” value was 3.699 µg/mL. The “median time to maximum concentration (Tmax)” value in [5] is 5 h.
